Assay [1] concerns the target T1, HepI K64A (Escherichia coli, UniProt P24173, K64A).
T1 construct: made in house; host or cells: E. coli One Shot BL-21-AI (stated for HepI in general)
As to the kind of experiment: HepI inhibition, ADP/NADH coupled assay (K64A mutant). The assay is classed as biochemical, E. coli K12. The protocol:
(§1) As previously reported[11],[14],[15], an ADP/NADH coupled assay was used to monitor HepI activity by monitoring the absorbance change at 340 nm at 37 °C on a Cary Bio 100 UV–Vis Spectrometer. Under normal conditions, the assay buffer was composed of 50 mM HEPES, 50 mM KCl, 10 mM MgCl2, pH 7.5. The coupled enzyme reaction additionally contained 100 μM phosphoenolpyruvate, 100 μM NADH, 100 μM dithiothreitol (DTT) and 0.05 U/μL of both pyruvate kinase and lactate dehydrogenase. 100 μM ADPH was used when ODLA concentration was varied and 100 μM ODLA was used when ADPH was varied. Once a stable baseline was established (~ 5 min), the reaction was initiated by addition of HepI to a final concentration of 50 nM or 100 nM (for high and lower substrate concentrations respectively) and all reported reaction rates are after background subtraction. When running 12 samples at once, plastic cuvette stirs and a repeat pipettor was used to inject 200 μL enzyme. Inhibition of HepI was monitored using the same ADP/NADH coupled assay, all conditions of the assay were the same as previously described unless otherwise stated. Ki values for each of the compounds were determined by varying compound final concentration from 100 μm to 10 nm, and a final concentration of 10 μM ODLA. Competition assays against ADPH were done with excess ODLA (100 μM) and varying ADPH from 2–0.25 μM. Competition assays against ODLA were done with excess ADPH (100 μM) and varying ODLA from 2–0.25 μM. Reactions were started with addition of enzyme and inhibitor was varied from 30–0.01 μM. Kinetics were fit to Lineweaver-Burke (Eq. 1), competitive (Eq. 2), non-competitive (Eq. 3), mixed (Eq. 4), Dixon (Eq. 5), or Cornish-Bowden (Eq. 6) models. All fitting and plotting was done through MATLAB R2018A.1 1/V1/[S]=KM/Vmax[S]+1/Vmax 2 V[S]=Vmax[S]/KM1+[I]/Ki+[S] 3 V[S]=Vmax[S]/1+([I]/Ki)/KM+[S] 4 V[S]=Vmax[S]/KM(1+[I]/Ki)+[S](1+[I]/αKi) 5 1/V[I]=KM1+I/Ki+[S]1+I/αKi/Vmax[S] 6 [S]/V[I]=KM1+I/Ki+[S]1+I/αKi/Vmax

For assay [2], the target named is T2, HepI R120A (Escherichia coli, UniProt P24173, R120A).
T2 construct: made in house; host or cells: E. coli One Shot BL-21-AI (stated for HepI in general)
T2 sequence (P24173 whole entry R120A): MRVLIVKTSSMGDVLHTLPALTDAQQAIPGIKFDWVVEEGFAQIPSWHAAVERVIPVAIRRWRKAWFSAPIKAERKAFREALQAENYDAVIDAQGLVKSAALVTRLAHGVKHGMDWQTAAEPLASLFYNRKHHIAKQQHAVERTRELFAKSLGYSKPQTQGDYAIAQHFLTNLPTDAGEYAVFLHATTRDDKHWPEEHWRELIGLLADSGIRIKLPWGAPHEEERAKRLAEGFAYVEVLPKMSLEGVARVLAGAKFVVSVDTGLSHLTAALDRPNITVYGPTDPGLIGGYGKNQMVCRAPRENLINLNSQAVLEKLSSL
Nature of the assay: HepI inhibition, ADP/NADH coupled assay (R120A mutant). The assay is classed as biochemical, E. coli K12. The method, then:
as §1

Entries after “also recorded” stand apart in the source; their conditions may differ.

T1 sequence (P24173 whole entry K64A): as the sequence (P24173 whole entry R120A) above, with K64A, A120R counted along it

In assay [1], `[H]/N=C(/N)N[C@H]1[C@H](O)[C@@H](O)[C@H](O[C@@H]2O[C@@H](C)[C@](O)(C=O)[C@H]2O[C@@H]2O[C@@H](CO)[C@H](O)[C@@H](O)[C@@H]2NC)[C@@H](N/C(N)=N\[H])[C@@H]1O` [Streptomycin] showed a Ki of 5.76 ± 0.485 µM. Also, the “kcat” value in assay [1] (HepI K64A in presence of inhibitor) worked out at 0.117 ± 0.009 s⁻¹. Further, the “Ki relative to WT” value in assay [1] (HepI K64A vs WT) is given as “increased the Ki values an order of magnitude”. Further, the “ΔΔG (kcal/mol) Exp” value in assay [1] (Lys64Ala relative to WT) came to 1.3 ± 0.1 kcal/mol. The “ΔG (kcal/mol) Exp” value in assay [1] (Lys64Ala, from Ki) was -7.1 ± 0.1 kcal/mol.
Consider `NC[C@H]1O[C@H](O[C@H]2[C@H](O)[C@@H](O[C@H]3O[C@H](CO)[C@@H](O)[C@H](N)[C@H]3O)[C@H](N)C[C@@H]2N)[C@H](N)C[C@@H]1O` [Tobramycin], for which, in assay [2], the Ki was 0.422 ± 0.186 µM. Also, in assay [2] (Arg120Ala relative to WT), the “ΔΔG (kcal/mol) Exp” value is recorded as -0.6 ± 0.2 kcal/mol. In assay [2] (Arg120Ala, from Ki), the “ΔG (kcal/mol) Exp” value is reported as -8.7 ± 0.2 kcal/mol. In assay [2] (HepI R120A vs WT), the “Ki relative to WT” value was “~ twofold tighter; also recorded: lowering of the inhibition constant”.

By Ki is commonly meant a dissociation constant, usually derived from enzyme kinetics or from competition with a known ligand. High values mean a looser hold on the target, low ones a stronger hold on the target. The kcat is the number of substrate molecules converted per active site and unit of time at saturation.

For the origin of these results see publication PMC9068772, “Discovery of first-in-class nanomolar inhibitors of heptosyltransferase I reveals a new aminoglycoside target and potential alternative mechanism of action” (Scientific Reports, 2022).
